≈ marks a conversion by molar mass, not a printed value. Starred links: 1 amine or outer side, 2 acyl side, 3 side chain; linkers in the order of their positions; H or OH if unused. Positions of bridges follow the written chain, without caps; N, C: chain ends. Non-standard residues stand in square brackets, D forms with d. Residues, ends and D or L forms follow the SMILES beside them. *: point of attachment. hTyr(3S-OH,4S-OH,3'-OSO3H) = N[C@H](C(=O)O)[C@H](O)[C@@H](O)c1ccc(O)c(OS(=O)(=O)O)c1; pTerphenylCO(4''-OnC5H11) = CCCCCOc1ccc(-c2ccc(-c3ccc(C(=O)*)cc3)cc2)cc1; Orn(4R-OH,5R-OH) = O=C([C@H](C[C@@H](O)[C@@H](O)N[*:3])N[*:1])[*:2]; hTyr(3S-OH,4S-OH) = N[C@H](C(=O)O)[C@H](O)[C@@H](O)c1ccc(O)cc1; Pro(3S-OH,4S-Me) = C[C@H]1CN[C@H](C(=O)O)[C@H]1O; X2 = CCCCCOc1ccc(-c2cc(-c3ccc(C(=O)*)cc3)no2)cc1; Gln(3R-OH) = NC(=O)C[C@@H](O)[C@H](N)C(=O)O; Hyp = O=C(O)[C@@H]1C[C@@H](O)CN1
test system: Pdss2/Mclk1 DKO cells; test: Viability in glucose-free galactose-containing medium (resazurin reduction assay); type: cell-based, mouse; settings: if provided at a sufficient amount
Description: Tissue culture and viability assays. […] Cell viability was determined by resazurin (Sigma Cat No R7017) reduction assay or crystal violet staining following standard procedures.
The resazurin cell viability assay. Briefly, resazurin was added directly to plates at 1/10 the volume of glucose culture medium. Viable cells with active metabolism can reduce resazurin into resorufin which causes a colour change from blue to pink. After a 2 hr incubation, plates were read on a plate reader (Tecan) to record absorbance at 570 nm and 600 nm. The cell viability was scored as a percentage relative to the signal from untreated glucose-grown wells. Consequently, each screened compound may be described by its effect (no, partial or full rescue) on survival of the KO cells in galactose medium.
The screen also uses cells lacking UQ biosynthesis (e.g., DKO cells) and its protocol is essentially the same as the galactose-only screen except that in step 2, a minimal amount of UQ10 is added into the galactose screening media at a concentration at which the added UQ10 is insufficient by itself to support survival.

Row | Structure (SMILES) | rescue from galactose-induced cell death by UQ supplementation
1 | COC1=C(OC)C(=O)C(C/C=C(\C)CC/C=C(\C)CC/C=C(\C)CC/C=C(\C)CC/C=C(\C)CC/C=C(\C)CC/C=C(\C)CC/C=C(\C)CCC=C(C)C)=C(C)C1=O [UQ9, ubiquinone-9] | sufficient to rescue them from galactose-induced cell death

test system: wildtype MEFs; test: Cellular UQ10 levels (quinone quantification by HPLC); type: cell-based, mouse; settings: cells treated with UQ10 or UQ10 combined with McC1 (FIG. 8)
Description: Quantification of quinones. Quinone content was detected and quantified by HPLC as previously described. […] After centrifugation for 5 min at 8,000×g, the hexane layer was collected and evaporated in a vacuum centrifuge. The quinone residue was then dissolved in ethanol and stored at −20° C. until HPLC analysis. The HPLC analysis was performed on a reverse phase C18 column (25.0×0.46 cm, 5 μm, Highchrom) using UV detection at 275 nm (Beckman System Gold). The mobile phase was methanol/ethanol (70:30 v/v) and isocratic elution was used at a flow rate of 1.8 ml/min.

Row | Structure (SMILES) | effect on cellular uptake of UQ10
2 | CCCCCCCC/C=C\CCCCCCCC(=O)ON1C(=O)CC(S(=O)(=O)O)C1=O (stereo not shown) [SSO, sulfo-N-succinimidyl oleate] | inhibits cellular uptake of UQ10

same assay, conditions: in combination with UQ10, vs UQ10 alone

Row | Structure (SMILES) | cellular uptake of exogenous UQ10
3 | CCCCCOc1ccc(-c2ccc(-c3ccc(C(=O)N[C@H]4C[C@@H](O)[C@@H](O)NC(=O)[C@@H]5[C@@H](O)[C@@H](C)CN5C(=O)[C@H]([C@@H](C)O)NC(=O)[C@H]([C@H](O)[C@@H](O)c5ccc(O)cc5)NC(=O)[C@@H]5C[C@@H](O)CN5C(=O)[C@H]([C@@H](C)O)NC4=O)cc3)cc2)cc1 [AFG, Anidulafungin] ({pTerphenylCO(4''-OnC5H11)}-[Orn(4R-OH,5R-OH)]T[Hyp][hTyr(3S-OH,4S-OH)]T[Pro(3S-OH,4S-Me)]; lactam 1-C) | did not further increase the level of UQ10
4 | CCCCCOc1ccc(-c2cc(-c3ccc(C(=O)N[C@H]4C[C@@H](O)[C@@H](O)NC(=O)[C@@H]5[C@@H](O)[C@@H](C)CN5C(=O)[C@H]([C@H](O)CC(N)=O)NC(=O)[C@H]([C@H](O)[C@@H](O)c5ccc(O)c(OS(=O)(=O)O)c5)NC(=O)[C@@H]5C[C@@H](O)CN5C(=O)[C@H]([C@@H](C)O)NC4=O)cc3)no2)cc1 [MFG, Micafungin] (X2-[Orn(4R-OH,5R-OH)]T[Hyp][hTyr(3S-OH,4S-OH,3'-OSO3H)][Gln(3R-OH)][Pro(3S-OH,4S-Me)]; lactam 1-C) | did not further increase the level of UQ10

test system: not listed separately; test: Drop collapse assay (surfactant activity); type: physicochemical; settings: not given
Description: Drop collapse assay is a simple detection method of surface active agents. It relies on the capacity of surfactants to destabilize the liquid droplets on an oily surface. The drop-collapsing ability of McC1 along with other known potent surfactants was characterized. For each, 40 ul of compound solution in water was pipetted onto a hydrophobic Parafilm surface and the diameter of the drops was measured 1 min later using a ruler.

Row | Structure (SMILES) | surfactant (drop collapse) activity
5 | CCCCCOc1ccc(-c2ccc(-c3ccc(C(=O)N[C@H]4C[C@@H](O)[C@@H](O)NC(=O)[C@@H]5[C@@H](O)[C@@H](C)CN5C(=O)[C@H]([C@@H](C)O)NC(=O)[C@H]([C@H](O)[C@@H](O)c5ccc(O)cc5)NC(=O)[C@@H]5C[C@@H](O)CN5C(=O)[C@H]([C@@H](C)O)NC4=O)cc3)cc2)cc1 [AFG, Anidulafungin] ({pTerphenylCO(4''-OnC5H11)}-[Orn(4R-OH,5R-OH)]T[Hyp][hTyr(3S-OH,4S-OH)]T[Pro(3S-OH,4S-Me)]; lactam 1-C) | no drop collapse activity
6 | CCCCCOc1ccc(-c2cc(-c3ccc(C(=O)N[C@H]4C[C@@H](O)[C@@H](O)NC(=O)[C@@H]5[C@@H](O)[C@@H](C)CN5C(=O)[C@H]([C@H](O)CC(N)=O)NC(=O)[C@H]([C@H](O)[C@@H](O)c5ccc(O)c(OS(=O)(=O)O)c5)NC(=O)[C@@H]5C[C@@H](O)CN5C(=O)[C@H]([C@@H](C)O)NC4=O)cc3)no2)cc1 [MFG, Micafungin] (X2-[Orn(4R-OH,5R-OH)]T[Hyp][hTyr(3S-OH,4S-OH,3'-OSO3H)][Gln(3R-OH)][Pro(3S-OH,4S-Me)]; lactam 1-C) | no drop collapse activity

test system: not given; test: not given; settings: cited from earlier work

Row | Structure (SMILES) | solubility in water
7 | C=CCNC1=C2C[C@@H](C)C[C@H](OC)[C@H](O)[C@@H](C)/C=C(\C)[C@H](OC(N)=O)[C@@H](OC)/C=C\C=C(/C)C(=O)NC(=CC1=O)C2=O [17-AAG] | 100 µg/mL (≈ 171 µM)
8 | O=C(O)COC(=O)Cc1ccccc1Nc1c(Cl)cccc1Cl [aceclofenac] | insoluble
9 | Nc1nc2c(ncn2COCCO)c(=O)[nH]1 [acyclovir] | < 2500 µg/mL
10 | CCCSc1ccc2nc(NC(=O)OC)[nH]c2c1 [albendazole] | insoluble
11 | CCCC1O[C@@H]2C[C@H]3[C@@H]4CCC5=CC(=O)C=C[C@]5(C)[C@H]4[C@@H](O)C[C@]3(C)[C@]2(C(=O)CO)O1 (stereo partly shown) [budesonide] | 10.7 mg/1
12 | CC(=O)O[C@@]12CO[C@@H]1C[C@H](O)[C@@]1(C)C(=O)[C@H](O)C3=C(C)[C@@H](OC(=O)[C@H](O)[C@@H](NC(=O)OC(C)(C)C)c4ccccc4)C[C@@](O)([C@@H](OC(=O)c4ccccc4)[C@H]21)C3(C)C [docetaxel] | 4.93 µg/mL (≈ 6.1 µM)
13 | COc1cc([C@@H]2c3cc4c(cc3[C@@H](O[C@@H]3O[C@@H]5CO[C@@H](C)O[C@H]5[C@H](O)[C@H]3O)[C@H]3COC(=O)[C@H]23)OCO4)cc(OC)c1O [etoposide] | 200 µg/mL (≈ 340 µM)
14 | CC(C)(C)NC(=O)[C@H]1CC[C@H]2[C@@H]3CC[C@H]4NC(=O)C=C[C@]4(C)[C@H]3CC[C@]12C [finasteride] | 11.7 µg/mL (≈ 31.4 µM)
15 | O=C(O)c1ccccc1Nc1cccc(C(F)(F)F)c1 [flufenamic acid] | 9.09 µg/mL (≈ 32.3 µM)
16 | O=c1cc(-c2ccc(O)c(O)c2)oc2cc(O)cc(O)c12 [luteolin] | 5.72 µg/mL (≈ 20 µM)

Reference: patent publication US12053441B2, “Formulations for improving the delivery of hydrophobic agents” (THE ROYAL INSTITUTION FOR THE ADVANCEMENT OF LEARNING / …, priority 2018, dated 2024)
